# Reference: US10668055B2, “Cancer treatment using combinations of ERK and RAF inhibitors” (BIOMED VALLEY DISCOVERIES, INC., priority 2013, dated 2020)
# Read-outs that look alike come from different tables or passages of the source.
# Legend:
# G-361 = assay: Single agent proliferation assay (CellTiter-Glo, 72 h); type: cell-based; settings: G-361, 72 h
# Method: (§1) Cells were seeded in 96-well plates at the densities and media conditions indicated in Table 17 and allowed to adhere overnight prior to addition of compound or vehicle control. Compounds were prepared from DMSO stocks to give the desired final concentrations. The final DMSO concentration was constant at 0.1%. Test compounds were incubated with the cells for 72 h at 37° C., 5% CO2 in a humidified atmosphere. CellTiter-Glo® reagent (Promega, Madison, Wis.) was added according to manufacturer's instructions and luminescence detected using the BMG FLUOstar plate reader (BMG Labtech, Ortenberg, Germany). The average media only background value was deducted and the data analysed using a 4-parameter logistic equation in GraphPad Prism (GraphPad Software, La Jolla, Calif.).
# A375 = assay: as above; type: cell-based, human; settings: A375, 72 h
# Method: as §1
# A375 cells [1] = assay: Proliferation assay (Alamar Blue, 96 hours) on parental and dose-escalated A375 cell lines; settings: Homo sapiens
# Method: Cancer cell lines were maintained in cell culture under standard media and serum conditions. For dose escalation studies, A375 cells were split, grown to about 40-60% confluence, and then treated with the initial dose of the specified drug.
# Proliferation assays were used to track changes in sensitivity to the escalated agent(s) at appropriate time intervals (e.g. each month, although the timing is dependent on adequate cell numbers being available). For proliferation assays, cells were seeded in 96-well plates at 3000 cells per well in drug-free DMEM medium containing 10% FBS and allowed to adhere overnight prior to addition of compound or vehicle control. […] Test compounds were incubated with the cells for 96 hours at 37° C. and 5% CO2 in a humidified atmosphere. Alamar Blue 10% (v/v) was then added and incubated for 4 hours and fluorescent product was detected using a BMG FLUOstar plate reader. The average media only background value was deducted and the data analyzed using a 4-parameter logistic equation in GraphPad Prism. Paclitaxel was used as a positive control.
# A375 cells [2] = assay: Dose escalation study in A375 cells; type: cell-based, human; settings: after 2 months, cells exposed to agent alone
# Method: Single agent dose escalations were performed based on Little et al., 2011 and is outlined in FIG. 25. Cells were then allowed to grow until 70-90% confluence and split. […] Medium was refreshed every 3-4 days. When cells again reached about 40-60% confluence, the dose was escalated. In the event that the 40-60% window was missed, the cells were split again and dosed once they reached 40-60% confluence. Again, medium was refreshed every 3-4 days. The process was repeated as required (FIG. 25).
# [3] = system: melanoma xenograft model derived from biopsies obtained from a patient; assay: Melanoma xenograft model derived from patient biopsies after progression on vemurafenib; type: in vivo; settings: model with acquired cross-resistance
# [4] = system: MAPK signaling pathway in A375 and HCT116 cells; assay: Western blot analysis of MAPK signaling, cell cycle and apoptosis proteins; type: cell-based, human
# Method: Cells were allowed to adhere overnight prior to addition of the indicated amount of test compound (BVD-523) or vehicle control. Cells were treated for either 4 or 24 hours before isolation of whole-cell protein lysates, as specified below. Cells were harvested by trypsinisation, pelleted and snap frozen. Lysates were prepared with RIPA (Radio-Immunoprecipitation Assay) buffer, clarified by centrifugation and quantitated by bicinchoninic acid assay (BCA) assay. 20-50 μg of protein was resolved by SDS-PAGE electrophoresis, blotted onto PVDF membrane and probed using the antibodies detailed in Table 13 (for the 4-hour treatment) and Table 14 (for the 24-hour treatment) below.
# [5] = system: A375 human melanoma xenograft; assay: A375 in vivo study: tumor growth delay and regression responses; set-up: species or system athymic nude mice; settings: for MTV (n) D45: Day 45
# Method: Female athymic nude mice (Crl:NU(Ncr)-Foxn/^nu, Charles River) were nine weeks old with a body weight (BW) range of 17.5 to 26.2 grams on Day 1 of the study. The animals were fed ad libitum water (reverse osmosis, 1 ppm CI), and NIH 31 Modified and Irradiated Lab Diet® consisting of 18.0% crude protein, 5.0% crude fat, and 5.0% crude fiber. The mice were housed on irradiated Enrich-o'cobs™ Laboratory Animal Bedding in static microisolators on a 12-hour light cycle at 20-22° C. (68-72° F.) and 40-60% humidity. The recommendations of the Guide for Care and Use of Laboratory Animals with respect to restraint, husbandry, surgical procedures, feed and fluid regulation, and veterinary care were complied with.
# Tumor xenografts were initiated with A375 human melanomas by serial subcutaneous transplantation in athymic nude mice. On the day of tumor implant, each test mouse received a 1 mm^3 A375 fragment implanted subcutaneously in the right flank, and tumor growth was monitored as the average size approached the target range of 80 to 120 mm^3. Tumors were measured in two dimensions using calipers, and volume was calculated using the formula: […]
# Ten days after tumor implantation, designated as Day 1 of the study, the animals were sorted into nine groups (Groups 1-9) each consisting of fifteen mice and one group (Group 10) consisting of ten mice. Individual tumor volumes ranged from 75 to 144 mm^3 and group mean tumor volumes were 110 or 111 mm^3.
# On Day 1 of the study, mice were sorted into nine groups (Group 1-9) each consisting of fifteen mice and one group (Group 10) consisting of ten mice, and dosing was initiated according to the treatment plan summarized in Table 15 below. Each dose was given by oral gavage (p.o.) in a dosing volume of 10 mL/kg (0.2 mL per 20 grams of body weight), scaled to the body weight of each individual animal. The vehicle and dabrafenib doses were to be given once daily until study end (qd to end), whereas the BVD-523 doses were to be given twice daily until study end (bid to end). For bid dosing, dosing was initiated in the afternoon on Day 1, so that one dose was given on the first day (“first day 1 dose”).
# Due to the striking response to combination treatment, dosing in Groups 2-5 was stopped on Day 20 in order to monitor tumor re-growth. Dosing was to be re-initiated in a group when the mean tumor burden reached 1000 mm^3. By Day 42, the 1000 mm^3 mean tumor burden had not been reached in any of the combination groups. Dosing was re-initiated to permit post-final dose serum and tumor sampling for pharmacokinetic analyses. […] The final dosing schedules are shown below in Table 16.
# Tumors were measured using calipers twice per week, and each animal was euthanized when its tumor reached the pre-determined tumor volume endpoint of 2000 mm^3 or on the final day, whichever came first. Animals that exited the study for tumor volume endpoint were documented as euthanized for tumor progression (TP), with the date of euthanasia. The time to endpoint (TTE) for analysis was calculated for each mouse by the following equation:
# [formula] where TTE is expressed in days, endpoint volume is expressed in mm^3, b is the intercept, and m is the slope of the line obtained by linear regression of a log-transformed tumor growth data set. The data set consists of the first observation that exceeded the endpoint volume used in analysis and the three consecutive observations that immediately preceded the attainment of this endpoint volume. The calculated TTE is usually less than the TP date, the day on which the animal was euthanized for tumor size. […] Any animal classified as having died from NTR (non-treatment-related) causes due to accident (NTRa) or due to unknown etiology (NTRu) were excluded from TTE calculations (and all further analyses). Animals classified as TR (treatment-related) deaths or NTRm (non-treatment-related death due to metastasis) were assigned a TTE value equal to the day of death. […]
# [6] = A375 in vivo study: toxicity (body weight, deaths, side effects)
# Text: Animals were weighed daily on Days 1-5, then twice per week until completion of the study. […] Individual body weight loss was monitored as per protocol, and any animal that exceeded the limits for acceptable body weight loss was euthanized. Group mean body weight loss also was monitored as per protocol. Dosing was to be suspended in any group that exceeded the limits for acceptable mean body weight loss. If mean body weight recovered, then dosing was to be resumed in that group, but at a lower dosage or less frequent dosing schedule.
# Acceptable toxicity for the maximum tolerated dose (MTD) was defined as a group mean body-weight loss of less than 20% during the study and not more than 10% treatment-related (TR) deaths. […] A death was classified as non-treatment-related (NTR) if there was no evidence that death was related to treatment side effects. NTR deaths were further characterized based on cause of death. A death was classified as NTRa if it resulted from an accident or human error. […] A death was classified as NTRu if the cause of death was unknown and there was no available evidence of death related to treatment side effects, metastasis, accident or human error, although death due to treatment side effects cannot be excluded.
structure (smiles),measurement,setting,value
N#Cc1c(Oc2ccc(F)c(NC(=O)Cc3cccc(C(F)(F)F)c3)c2)ccc2nc(NC(=O)C3CC3)sc12 [TAK-632],IC50,G-361,164 nM
same,IC50,A375,26 nM
CC(=O)Nc1cccc(-n2c(=O)n(C3CC3)c(=O)c3c(Nc4ccc(I)cc4F)n(C)c(=O)c(C)c32)c1 [Trametinib],IC50,"A375 cells [1]; A-375, read-out: Relative IC50, Month 1, Par = Parental cell line",0.5 nM
same,IC50,"A375 cells [1]; A-375, read-out: Relative IC50, Month 1, cell line BVD-523 (0.48 μM)",0.7 nM
same,IC50,"A375 cells [1]; A-375, read-out: Relative IC50, Month 1, cell line Dab (15 nM Dab)",2.5 nM
same,IC50,"A375 cells [1]; A-375, read-out: Relative IC50, Month 1, cell line Dab/523 (7.5 nM/0.24 μM)",3.1 nM
same,IC50,"A375 cells [1]; A-375, read-out: Relative IC50, Month 1, cell line Tram (growing in 2 nM Tram)",2.2 nM
same,IC50,"A375 cells [1]; A-375, read-out: Relative IC50, Month 2, Par = Parental cell line",0.4 nM
same,IC50,"A375 cells [1]; A-375, read-out: Relative IC50, Month 2, cell line BVD-523 (0.8 μM)",24.3 nM
same,IC50,"A375 cells [1]; A-375, read-out: Relative IC50, Month 2, cell line Dab (127 nM Dab)",1.1 nM
same,IC50,"A375 cells [1]; A-375, read-out: Relative IC50, Month 2, cell line Dab/523 (12.5 nM/0.4 μM)",6.2 nM
same,IC50,"A375 cells [1]; A-375, read-out: Relative IC50, Month 2, cell line Tra (8 nM Tram)",0.7 nM
same,IC50,"A375 cells [1]; A-375, read-out: Relative IC50, Month 3, Par = Parental cell line",0.2 nM
same,IC50,"A375 cells [1]; A-375, read-out: Relative IC50, Month 3, cell line Dab (3.2 μM Dab)",0.4 nM
CC(C)Nc1cc(-c2c[nH]c(C(=O)N[C@H](CO)c3cccc(Cl)c3)c2)c(Cl)cn1 [BVD-523],IC50,G-361; Homo sapiens,344 nM
same,Increase in drug exposure beyond the IC50 that cells withstand,A375 cells [2],less than 10 fold
same,IC50,"A375; Homo sapiens, A-375",87 nM
same,Anti-tumor response,[3],potent anti-tumor response
same,PARP protein cleavage and increased apoptosis,[4]; A375 cell background,not noted
same,Autophosphorylation of ERK,[4]; FIG. 18,allows for the autophosphorylation of ERK while still inhibiting ERK
same,DUSP6 total protein levels,[4]; prolonged treatment,greatly reduced
same,cyclin-D1 protein levels,[4]; prolonged treatment,greatly reduced
same,total levels of Bim-EL,[4]; prolonged treatment,increase
same,% TGD,[5]; G8: 50 mg/kg po bid to end,−7%
same,Median TTE,[5]; G8: 50 mg/kg po bid to end,8.6 days
same,PR (partial regressions),[5]; G8: 50 mg/kg po bid to end,0
same,MTV (n) D45,[5]; G8: 50 mg/kg po bid to end,0 (1) imd
same,% TGD,[5]; G9: 100 mg/kg po bid to end,101%
same,Median TTE,[5]; G9: 100 mg/kg po bid to end,18.5 days
same,PR (partial regressions),[5]; G9: 100 mg/kg po bid to end,0
same,T-C,[5]; G9: 100 mg/kg po bid to end,9.3 days
same,MTV (n) D45,[5]; G9: 100 mg/kg po bid to end,2 (2) imd
same,Deaths NTR,[6]; G8: 50 mg/kg po bid to end,0
same,Deaths TR,[6]; G8: 50 mg/kg po bid to end,0
same,Mean BW Nadir,"[6]; G8: 50 mg/kg po bid to end, nadir on Day 2",−0.1% Day 2
same,Deaths NTR,[6]; G9: 100 mg/kg po bid to end,0
same,Deaths TR,[6]; G9: 100 mg/kg po bid to end,0
Cn1nnc2c(C(N)=O)ncn2c1=O [Temozolomide],% TGD,[5]; G10: 150 mg/kg po qd × 5,14%
same,CR (complete regressions),[5]; G10: 150 mg/kg po qd × 5,0
same,Median TTE,[5]; G10: 150 mg/kg po qd × 5,10.5 days
same,PR (partial regressions),[5]; G10: 150 mg/kg po qd × 5,0
same,T-C,[5]; G10: 150 mg/kg po qd × 5,1.3 days
same,TFS (tumor free survivors),[5]; G10: 150 mg/kg po qd × 5,0
same,Deaths NTR,[6]; G10: 150 mg/kg po qd × 5,0
same,Deaths TR,[6]; G10: 150 mg/kg po qd × 5,0
same,Mean BW Nadir,"[6]; G10: 150 mg/kg po qd × 5, nadir on Day 5",−1.6% Day 5
